Among the data in patent publication US5912356A, “Antiviral nucleoside analogues containing a substituted benzimidazole base attached to a carbocyclic ring” (Glaxo Wellcome Inc., priority 1997, dated 1999) are IC50 values, retold here.

Molecules are shown by their SMILES.

In general, IC50 refers to the point on the concentration scale where inhibition reaches its midpoint. Lower therefore signals inhibition by little substance.

Assay [1] deals with Human cytomegalovirus (HCMV). The assay can be described thus: Anti-HCMV plaque reduction assay in MRC5 cell monolayers. Type of assay: cell-based. The following applies: Human betaherpesvirus 5, 50% inhibitory concentration, MRC5 cells (human embryonic lung). On the procedure:
Human cytomegalovirus (HCMV) is assayed in monolayers of MRC5 cells (human embryonic lung) in multiwell trays. Activity of compounds is determined in the plaque reduction assay, in which a cell monolayer is infected with a suspension of HCMV. A range of concentrations of the compound to be tested (of known molarity) is then incorporated into the carboxymethyl cellulose overlay. Plaque numbers of each concentration are expressed as percentage of the control and a dose-response curve is drawn. From this curve the 50% inhibitory concentration (IC50) is estimated.
(In general: In a plaque reduction assay, fewer plaques than in the control indicate reduced infectivity or spread.)

Another assay has as its system HBV. In words: Anti-HBV assay: HBV DNA in supernatants of HBV-producing cells (HepG2 2.2.15, P5A), immunoaffinity capture, PCR and hybrid-capture detection. The class given is cell-based, hepatitis B virus (HBV). The following applies: 50 percent decrease in HBV DNA, HepG2 2.2.15, P5A cell line, two values per compound, ganciclovir (control): average of 10 values. Here is the method:
Anti-HBV activity of compounds of formula (I) and (I-1) was determined with a high-capacity assay for assessing efficacy. Supernatants from growing HBV-producing cells (HepG2 2.2.15, P5A cell line) in 96-well plates are applied to microtiter plate wells which have been coated with a specific monoclonal antibody to HBV surface antigen (HBsAg). Virus particles present in the supernatants bind to the antibody and remain immobilized while other debris is removed by washing. These virus particles are then denatured to release HBV DNA strands which are subsequently amplified by the polymerase chain reaction and detected with a calorimetric hybrid-capture assay. Quantitation is achieved through fitting of a standard curve to dilutions of a cell supernatant with known HBV DNA content. By comparing HBV DNA levels of untreated control cell supernatants with supernatants containing a compound of formula (I) or (I-1), a measure of anti-HBV effectiveness is obtained.
b. Immunoaffinity Capture of HBV:
HBV producer cells, 2500 cells/well, were seeded in 96-well culture dishes in RPMI/10% fetal bovine serum/2 mM glutamine (RPMI/10/2:). Media were replenished on days 1, 3, 5, and 7 with dilutions of a compound of formula (1) or (I-1) in RPMI/10/2 to a final volume of 150 uL. Fifty uL of mouse monoclonal anti-HBsAG antibody (10 ug/mL in PBS) were added to each well of a round-bottom microtiter plate. After incubation overnight at 4° C., the solutions were aspirated and replaced with 100 uL of 0.1% BSA in PBS. Samples were incubated for 2 hours at 37° C. and washed three times with PB S/0/01% Tween-20 (PBS/T) using a Nunc Washer. Ten uL of 0.035% Tween 20 in PBS were then added to all wells by Pro/Pette. Cell supernatants (25 uL) containing extracellular virion DNA were transferred into wells by Pro/Pette; the final Tween concentration is 0.01%. Twenty-five uL HBV standard media dilutions in RPMI/10/2 were added to 2 rows of wells to serve as an internal standard curve for quantitation, and the plates were sealed and incubated at 4° C. overnight. Samples were washed 5 times with PBS/T and 2 times with PBS, aspirating the last wash. Next, 25 uL of 0.09N NaOH/0.01% NP40 were added to each well by Pro/Pette, and the sample wells were sealed and incubated at 37° C. for 60 minutes. Samples were then neutralized with 25 uL of 0.09N HCl/100 mM tris (pH 8.3).
c. Polymerase Chain Reaction (PCR):
Polymerase chain reaction (Saiki, R. K. et al., Science, 239 (4839) 487-91 (1988)) was carried out on 5 uL samples, using a Perkin Elmer PCR kit. PCR is performed in "MicroAmp tubes" in a final volume of 25 uL. Primers were chosen from conserved regions in the HBV genome, as determined by alignment of several sequences. One primer is biotinylated at the 5-prime end to facilitate hybrid-capture detection of the PCR products. All primers were purchased from Synthecell Corp., Rockville, Md. 20850.
d. Hybrid-Capture Detection of PCR Products:
PCR products were detected with horse radish peroxidase-labeled oligonucleotide probes (Synthecell Corp., Rockville, Md. 20850), which hybridize to biotinylated strands of denatured PCR products directly in streptavidin-coated microtiter plate wells, using essentially the method of Holodiniy, M. et al., BioTechniques, 12 (1) 37-39 (1992). Modifications included the use of […] PCR reaction volumes and sodium hydroxide denaturation instead of heat. Simultaneous binding of the biotin moiety to the plate-bound streptavidin during the hybridization serves to "capture" the hybrids. Unbound labeled probes were washed away before calorimetric determination of the bound (hybridized) horse radish peroxidase. Quantities of HBV DNA present in the original samples were calculated by comparison with standards. These values were then compared to those from untreated cell cultures to determine the extent of anti-HBV activity.
IC50 (the median inhibitory concentration) is the amount of compound which produces a 50 percent decrease in HBV DNA. […]

The mark [2] stands for this setting: Hepatitis B virus, HepG2 2.2.15, approximate IC50.

In assay [1], `OC[C@@H]1C[C@H](n2c(Br)nc3cc(Cl)c(Cl)cc32)[C@@H](O)[C@H]1O` (relative stereo) [Ex. 4, (±)-(1R*, 2S*, 3S*, 5S*)-5-(2-Bromo-5,6-dichloro-1H-benzimidazol-1yl)-3-(hydroxymethyl)-1,2-cyclopentanediol] displayed an IC50 of 1900 nM.

On to `CC(C)(C)Nc1nc2cc(Cl)c(Cl)cc2n1[C@H]1C[C@@H](CO)[C@H](O)[C@@H]1O` [Ex. 40, (1R, 2S, 3S, 5S)-5-[2-(tert-Butylamino)-5,6-dichloro-1H-benzimidazol-1-yl]-3-(hydroxymethyl)-1,2-cyclopentanediol], for which, in the assay with HBV (approximate IC50), 1400 nM corresponded to half-maximal inhibition (IC50). That is a single-digit micromolar value.

For the compound `OC[C@@H]1C[C@H](n2c(NC3CC3)nc3cc(Cl)c(Cl)cc32)[C@@H](O)[C@H]1O` [Ex. 32, (1R, 2S, 3S, 5S)-5-[5,6-Dichloro-2-(cyclopropylamino)-1H-benzimidazol-1-yl]-3-(hydroxymethyl)-1,2-cyclopentanediol], the half-inhibitory concentration (IC50) in the assay with HBV (setting [2]) turned out to be 1300 nM; with HBV (approximate IC50) it was 790 nM.

Turning to `Nc1nc(O)c2ncn(COC(CO)CO)c2n1` [ganciclovir, reference compound], the half-maximal inhibitory concentration (IC50) in the assay on HBV (setting [2]) amounted to 1100 nM. This counts as single-digit micromolar.

Consider `CC(C)Nc1nc2cc(Cl)c(Cl)cc2n1[C@H]1C[C@@H](CO)[C@H](O)[C@@H]1O` [Ex. 33, (1R, 2S, 3S, 5S)-5-[5,6-Dichloro-2-(isopropylamino)-1H-benzimidazol-1-yl]-3-(hydroxymethyl)-1,2-cyclopentanediol], for which the IC50 in the assay with HBV (setting [2]) is 440 nM; in the assay with HBV (approximate IC50), 500 nM.
